Where two headings read alike, the source gives them in different places.
Columns and labels:
[1] = tested on: patients with advanced solid malignancy; conditions: in vivo
Experimental: Belinostat was administered in escalating doses of 600, 800 and 1000 mg m^−2 per day as a 30-min i.v. infusion on days 1–5 q21. Carboplatin was administered as a 30-min i.v. infusion at area under the curve (AUC) 5 on day 3 q21 days, whereas paclitaxel was administered at 175 mg m^−2 i.v. over 3 h. Cytotoxics were given 2–3 h after the administration of belinostat–paclitaxel followed by carboplatin. […] Carboplatin was dosed in accordance with the Calvert formula using ethylenediaminetetraacetic acid clearance to estimate glomerular filtration rate (GFR) ([Calvert et al, 1989]) at the European Union sites and the Jelliffe formula at sites in the United States ([Jelliffe, 1973]). Prophylactic anti-emetic and hypersensivity prophylaxis for paclitaxel were administered as per local standards.
A DLT was defined as an absolute neutrophil count <0.5 × 10^9 l^−1 lasting for ⩾7 days, or absolute neutrophil count <0.5 × 10^9 l^−1 with sepsis; or platelet count <25 × 10^9 l^−1. In addition, any other drug-related non-haematological grade III or IV toxicity with the exceptions of alopecia, nausea and vomiting, diarrhoea, rash, arthralgias and myalgias was categorized as DLT.
Dose escalation was planned in a classical 3+3 design in up to five cohorts. In cohort 1A, belinostat was to be administered at 600 mg m^−2 together with carboplatin AUC 5; in cohort 1B, […] with paclitaxel 175 mg m^−2. In cohort 2, belinostat at 600 mg m^−2 was to be administered with both carboplatin AUC 5 and paclitaxel at 175 mg m^−2. In cohorts 3 and 4, belinostat was to be administered at 800 and 1000 mg m^−2, respectively, together with the same doses of BelCaP. Treatment cycles were to be repeated until disease progression, evidence of significant treatment-related toxicities, or withdrawal of consent. Up to two dose reductions were to be allowed of all three drugs.
Pre-treatment evaluation included history, physical examination, laboratory assessments, chest x-ray, electrocardiogram (ECG), urinalysis and tumour evaluation with computed tomography (CT) or magnetic resonance imaging (MRI). Laboratory assessments (complete blood count, clotting screen, urea, creatinine, electrolytes, liver function tests, uric acid, glucose and cholesterol) were performed pre-treatment and weekly thereafter as well as on day 4 of cycles 1 and 2 only. Electrocardiograms were performed before and within 1 h after treatment with belinostat in cycle 1 and on day 1 only of all subsequent cycles. Central ECG reading was carried out using a digital analysis method.
Toxicities were graded according to the National Cancer Institute Common Terminology Criteria for Adverse Events version 3.0. Efficacy was assessed by CT or MRI performed every two cycles using Response Evaluation Criteria in Solid Tumors (RECIST) ([Therasse et al, 2000]).

[2] = Belinostat plasma pharmacokinetics in patients (HPLC-MS/MS, non-compartmental); assay type: in vivo, human; conditions: for Cl / Vss / AUC / AUC(0-inf) / Cmax / half-life: mean±s.d.; for AUC / AUC(0-inf) / Cmax / half-life: human, plasma, iv
Experimental: Belinostat and paclitaxel levels were determined in lithium-heparinised plasma using validated solid-phase extraction high performance liquid chromatograpgy (HPLC)-tandem mass spectrometric detection (MS/MS) methods (Covance, Indianapolis, IN, USA). […] Belinostat plasma concentrations were determined at Covance using a validated method involving solid-phase extraction, separation with acetic acid acetonitril gradient on reversed phase C18 silica and MS/MS using penta-deuterated belinostat as the internal standard. […] For all analytes the AUC was estimated from the start of infusion by the logarithmic-linear trapezoidal rule and extrapolated to infinity using the estimated value of the slope of the terminal logarithmic-linear disposition phase.

[3] = tested on: advanced solid malignancy; test: Anti-tumour activity by CT/MRI (RECIST) in phase I patients; assay type: in vivo, human; conditions: for duration of response: confirmed PR
[4] = tested on: class I and II recombinant HDAC isoforms; set-up: method as in Khan et al, 2008; conditions: ref Khan et al, 2008; cited from earlier work
[5] = tested on: solid and haematological tumours; conditions: cited from earlier work; for dose-limiting toxicities: 2008
[6] = set-up: method as in Qian et al, 2006; conditions: combined with paclitaxel, docetaxel and carboplatin, in vitro and in vivo; ref Qian et al, 2006; cited from earlier work
[7] = belinostat 600 mg m^−2 i.v., days 1 and 3, 12 patients
[8] = belinostat 800 mg m^−2 i.v., days 1 and 3, 4 patients
[9] = belinostat 1000 mg m^−2 i.v., day 1, 7 patients
[10] = belinostat 1000 mg m^−2 i.v., day 3, 7 patients
[11] = 600 mg, belinostat 600 mg m^−2 i.v., days 1 and 3, 12 patients
[12] = 800 mg, belinostat 800 mg m^−2 i.v., days 1 and 3, 4 patients
[13] = 1000 mg, belinostat 1000 mg m^−2 i.v., day 1, 7 patients
[14] = 1000 mg, belinostat 1000 mg m^−2 i.v., day 3, 7 patients
[15] = eight patients with best response s.d.

## O=C(/C=C/c1cccc(S(=O)(=O)Nc2ccccc2)c1)NO [belinostat]
[1]; human
  Alopecia grade 3, treatment related AE: 0
  Arthralgia grade 3, treatment related AE: 0
  Flushing grade 3, treatment related AE: 0
  Nausea grade 3, treatment related AE: 0
  Neutropenia grade 4, treatment related AE: 13%
  maximal administered dose of belinostat: 1000 mg m^−2 per day
[1]; human, iv
  recommended dose of belinostat: 1000 mg m^−2 per day
[1]
  cardiac toxicity: no cardiac toxicity
  grade IV non-haematological adverse events: no grade IV non-haematological adverse events
[2]; 1000 mg m^−2 per day, day 3 pre-infusion
  accumulation with repeat dosing: no accumulation
[2]; [7]
  Cl: 69.7±15.2 l h^−1 m^−2
  Vss: 34.9±6.4 l m^−2
[2]; [8]
  Cl: 73.7±14.1 l h^−1 m^−2
  Vss: 38.1±9.7 l m^−2
[2]; [9]
  Cl: 41.1±22.2 l h^−1 m^−2
  Vss: 22.6±9.7 l m^−2
[2]; [10]
  Cl: 45.1±17.3 l h^−1 m^−2
  Vss: 35.8±17.3 l m^−2
[2]; belinostat 1000 mg m^−2 per day, limit of quantitation 5 ng ml^−1
  patients with pre-infusion plasma value on day 3 below the limit of quantitation: five of seven
[2]; belinostat with carboplatin and/or paclitaxel on day 3
  effect of concurrent administration on pharmacokinetics: unaltered
[2]; dose range 600–1000 mg m^−2
  dose proportionality of pharmacokinetics: dose proportional
[2]; [11]
  AUC: 28.4 ± 7.1 µM·h
  AUC(0-inf): 28.4 ± 7.1 µM·h
  Cmax: 58.5 ± 13.8 µM
  half-life: 102 ± 54 min
[2]; [12]
  AUC: 35.5 ± 8.7 µM·h
  AUC(0-inf): 35.6 ± 8.7 µM·h
  Cmax: 70.8 ± 18.9 µM
  half-life: 102 ± 12 min
[2]; [13]
  AUC: 102 ± 58.2 µM·h
  AUC(0-inf): 102 ± 58.3 µM·h
  Cmax: 128 ± 43.5 µM
  half-life: 60 ± 6 min
[2]; [14]
  AUC: 88.8 ± 63.9 µM·h
  AUC(0-inf): 88.8 ± 63.9 µM·h
  Cmax: 135 ± 54.9 µM
  half-life: 162 ± 24 min
[3]; 14 patients evaluable
  patients with best response of s.d.: eight
[3]; belinostat with carboplatin and/or paclitaxel
  patients with stable disease lasting ⩾6 months: six and seven
[3]; belinostat with carboplatin and/or paclitaxel, 14 patients evaluable, RECIST
  partial responses (number of patients): two
[3]; patient with metastatic pancreatic cancer treated with belinostat and carboplatin
  duration of response: 7 months
[3]; patient with metastatic rectal cancer treated with belinostat, carboplatin and paclitaxel
  duration of response: 9 months
[3]; [15]
  duration of s.d., median: 6.6 months
  duration of s.d., range: 1–29 months
[3]; one patient, mixed mullerian tumour of ovarian origin, radiologically s.d. by RECIST
  CA-125 response: complete CA-125 response
[3]; seven patients with s.d. lasting ⩾6 months
  duration of s.d., range: 6–29 months
[3]; treated with belinostat and paclitaxel, otherwise rated s.d.
  response in patient with metastatic transitional cell cancer of the bladder: resolution of a bony metastatic deposit
[4]
  activity against HDAC isoforms: nanomolar activity
[5]; single agent phase I studies, ref Steele et al, 2008, Gimsing et al
  myelosuppression: no significant myelosuppression
[5]; single agent, i.v., q21 days, ref Steele et al, 2008, Gimsing et al
  maximum tolerated dose (MTD): 1000 mg m^−2 per day
[5]; single agent, solid tumour study, ref Steele et al
  dose-limiting toxicities: fatigue, diarrhoea and atrial fibrillation
[5]; single agent, study of haematological tumours, ref Gimsing et al
  dose-limiting toxicities: none were seen
[6]
  combination effect: additive to synergistic

Reference: paper PMC2905291, “A phase I study of the safety and pharmacokinetics of the histone deacetylase inhibitor belinostat administered in combination with carboplatin and/or paclitaxel in patients with solid tumours” (British Journal of Cancer, 2010)
